The target in the assay is T1, Prostaglandin G/H synthase 2 (Homo sapiens, UniProt P35354).
T1 sequence (P35354 whole entry): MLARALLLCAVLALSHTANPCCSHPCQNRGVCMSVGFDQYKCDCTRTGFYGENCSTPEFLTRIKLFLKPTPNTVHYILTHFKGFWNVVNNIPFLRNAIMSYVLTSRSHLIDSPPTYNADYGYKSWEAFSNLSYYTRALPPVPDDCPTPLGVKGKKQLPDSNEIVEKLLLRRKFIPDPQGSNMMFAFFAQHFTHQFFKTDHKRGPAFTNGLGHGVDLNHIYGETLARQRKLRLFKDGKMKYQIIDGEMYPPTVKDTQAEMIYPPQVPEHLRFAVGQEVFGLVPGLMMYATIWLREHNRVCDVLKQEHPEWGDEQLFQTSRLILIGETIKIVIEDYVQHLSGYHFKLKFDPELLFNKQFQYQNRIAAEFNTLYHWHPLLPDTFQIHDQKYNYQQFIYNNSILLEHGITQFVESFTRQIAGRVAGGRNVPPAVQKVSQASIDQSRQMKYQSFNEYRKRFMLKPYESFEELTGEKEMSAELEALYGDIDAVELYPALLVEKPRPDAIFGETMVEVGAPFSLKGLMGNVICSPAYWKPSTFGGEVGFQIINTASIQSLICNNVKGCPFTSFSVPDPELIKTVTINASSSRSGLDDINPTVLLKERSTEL
Put plainly: Inhibitory concentration against COX-2 upon incubation for 15 minutes at 37 degree C.

SMILES strings stand for the structures. pIC50: −log10 of the molar value.

The pIC50 is −log10 of the IC50, conventionally taken in molar units. `NS(=O)(=O)c1ccc(-c2nc3ccccc3n2-c2ccc(Cl)cc2)cc1` showed a negative logarithm of the IC50 (pIC50) of 6.70.

`COc1ccccc1-n1c(-c2ccc(S(N)(=O)=O)cc2)nc2ccccc21`: the negative logarithm of the IC50 (pIC50) is 5.10.

(Values after ChEMBL document CHEMBL1140379, “Extraction and visualization of potential pharmacophore points using support vector machines: application to ligand-based virtual screening for COX-2 inhibitors” (J Med Chem, 2005).)
